Source: patent US20060281736A1, “Product comprising at least one phosphatase cdc25 inhibitor combined with at least one other anticancer agent” (priority 2003, published 2006)
pIC50: −log10 of the molar value. Structures can show the parent of a compound that is named as a salt.

System: Mia-PaCa2 (human pancreas cancer cells)
Experiment: Antiproliferative activity on Mia-Paca2 cells (WST1)
Format: cell-based
Settings: MIA PaCa-2, 96 hours treatment, read-out: IC50 on the cell proliferation of Mia-Paca2 lines
Experimental: ii) Characterization of the Antiproliferative Activity:
By way of example, the effect of a treatment on two human cell lines Mia-Paca2 and DU145 with the compounds of the examples described previously will be studied. The cell lines DU145 (human prostate cancer cells) and Mia-PaCa2 (human pancreas cancer cells) were acquired from the American Tissue Culture Collection (Rockville, Md., USA). The cells placed in 80 μl of Dulbecco's Modified Eagle's medium (Gibco-Brl, Cergy-Pontoise, France) completed with 10% foetal calf serum inactivated by heating (Gibco-Brl, Cergy-Pontoise, France), 50,000 units/l of penicillin and 50 mg/l of streptomycin (Gibco-Brl, Cergy-Pontoise, France), and 2 mM of glutamine (Gibco-Brl, Cergy-Pontoise, France) were seeded on a 96-well plate on day 0. The cells were treated on day 1 for 96 hours with increasing concentrations of each of the compounds to be tested up to 10 μM. At the end of this period, quantification of cell proliferation is evaluated by a colorimetric test based on the cleavage of the tetrazolium salt WST1 by the mitochondrial dehydrogenases in viable cells leading to the formation of formazan (Boehringer Mannheim, Meylan, France). These tests are carried out in duplicate with 8 determinations per concentration tested. For each compound to be tested, the values included in the linear part of the sigmoid were retained for a linear regression analysis and used to estimate the inhibitory concentration IC50. The products are solubilized in dimethylsulphoxide (DMSO) at 10^−2 M and finally used in culture with 0.1% DMSO.

Row | Structure (SMILES) | pIC50
1 | Cc1nc2c(s1)C(=O)C=C(NC1CCc3ccccc31)C2=O (stereo not drawn) [Example 28, 5-(2,3-dihydro-1H-inden-1-ylamino)-2-methyl-1,3-benzothiazole-4,7-dione] | ≥ 5.00
2 | Cc1nc2c(s1)C(=O)C(Cl)=C(NCCN(C)C)C2=O [Example 34, 6-chloro-5-{[2-(dimethylamino)ethyl]amino}-2-methyl-1,3-benzothiazole-4,7-dione] | ≥ 5.00
3 | CN(C)CCNC1=CC(=O)c2sc(CN3CCCCC3)nc2C1=O [Example 39, 5-{[2-(dimethylamino)ethyl]amino}-2-(piperidin-1-ylmethyl)-1,3-benzothiazole-4,7-dione] | ≥ 5.00
4 | Cc1nc2c(s1)C(=O)C=C(NCCC1CCCN1C)C2=O (stereo not drawn) [Example 24, 2-methyl-5-{[2-(1-methylpyrrolidin-2-yl)ethyl]amino}-1,3-benzothiazole-4,7-dione] | ≥ 5.00
5 | CCCCSC1=C(NCCN(C)C)C(=O)c2nc(C)sc2C1=O [Example 36, 6-(butylthio)-5-{[2-(dimethylamino)ethyl]amino}-2-methyl-1,3-benzothiazole-4,7-dione] | ≥ 5.00
6 | Cc1nc2c(s1)C(=O)C=C(NCCN1CCCC1)C2=O [Example 19, 2-methyl-5-[(2-pyrrolidin-1-ylethyl)amino]-1,3-benzothiazole-4,7-dione] | ≥ 5.00
7 | Cc1nc2c(s1)C(=O)C=C(N1CCN(Cc3ccccc3)CC1)C2=O [Example 14, 5-(4-benzyl-1-piperazinyl)-2-methyl-1,3-benzothiazole-4,7-dione] | ≥ 5.00
8 | Cc1nc2c(s1)C(=O)C=C(NCc1cccc(Cl)c1)C2=O [Example 9, 5-[(3-chlorobenzyl)amino]-2-methyl-1,3-benzothiazole-4,7-dione] | ≥ 5.00
9 | Cc1nc2c(s1)C(=O)C=C(NCCN1CCCCC1)C2=O [Example 20, 2-methyl-5-[(2-piperidin-1-ylethyl)amino]-1,3-benzothiazole-4,7-dione] | ≥ 5.00
10 | Cc1nc2c(s1)C(=O)C=C(NC1CCN(Cc3ccccc3)C1)C2=O (stereo not drawn) [Example 22, 5-[(1-benzylpyrrolidin-3-yl)amino]-2-methyl-1,3-benzothiazole-4,7-dione] | ≥ 5.00
11 | Cc1nc2c(s1)C(=O)C=C(NCCN1CCOCC1)C2=O [Example 1, 2-methyl-5-{[2-(4-morpholinyl)ethyl]amino}-1,3-benzothiazole-4,7-dione] | ≥ 5.00
12 | CN(C)CCNC1=CC(=O)c2sc(CN3CCOCC3)nc2C1=O [Example 37, 5-{[2-(dimethylamino)ethyl]amino}-2-(morpholin-4-ylmethyl)-1,3-benzothiazole-4,7-dione] | ≥ 5.00
13 | Cc1nc2c(s1)C(=O)C=C(NCc1cccs1)C2=O [Example 8, 2-methyl-5-[(2-thienylmethyl)amino]-1,3-benzothiazole-4,7-dione] | ≥ 5.00
14 | Cc1nc2c(s1)C(=O)C=C(N(CCN(C)C)Cc1ccccc1)C2=O [Example 29, 5-{benzyl[2-(dimethylamino)ethyl]amino}-2-methyl-1,3-benzothiazole-4,7-dione] | ≥ 5.00
15 | CN(C)CCNC1=CC(=O)c2sc(CN3CCN(c4ccccc4)CC3)nc2C1=O [Example 38, 5-{1[2-(dimethylamino)ethyl]amino}-2-[(4-phenylpiperazin-1-yl)methyl]-1,3-benzothiazole-4,7-dione] | ≥ 5.00
16 | Cc1nc2c(s1)C(=O)C=C(NCC13CC4CC(CC(C4)C1)C3)C2=O [Example 7, 5-[(1-adamantylmethyl)amino]-2-methyl-1,3-benzothiazole-4,7-dione] | ≥ 5.00

Other lines, results leading:

Row | pIC50 | Structure (SMILES)
17 | ≥ 5.00 | Cc1nc2c(s1)C(=O)C=C(NCCCN1CCN(C)CC1)C2=O [Example 5, 2-methyl-5-{[3-(4-methyl-1-piperazinyl)propyl]amino}-1,3-benzothiazole-4,7-dione]
18 | ≥ 5.00 | Cc1nc2c(s1)C(=O)C=C(NCCCCN(C)C)C2=O [Example 26, 5-{[4-(dimethylamino)butyl]amino}-2-methyl-1,3-benzothiazole-4,7-dione]
19 | ≥ 5.00 | Cc1nc2c(s1)C(=O)C=C(NCCCCCN(C)C)C2=O [Example 27, 5-{[5-(dimethylamino)pentyl]amino}-2-methyl-1,3-benzothiazole-4,7-dione]
20 | ≥ 5.00 | Cc1nc2c(s1)C(=O)C=C(NCCN(C(C)C)C(C)C)C2=O [Example 21, 5-{[2-(diisopropylamino)ethyl]amino}-2-methyl-1,3-benzothiazole-4,7-dione]
21 | ≥ 5.00 | Cc1nc2c(s1)C(=O)C=C(NCCN(C)C)C2=O [Example 2, 5-{[2-(dimethylamino)ethyl]amino}-2-methyl-1,3-benzothiazole-4,7-dione hydrochloride]
22 | ≥ 5.00 | COCCNC1=CC(=O)c2sc(C)nc2C1=O [Example 18, 5-[(2-methoxyethyl)amino]-2-methyl-1,3-benzothiazole-4,7-dione]
23 | ≥ 5.00 | Cc1nc2c(s1)C(=O)C=C(NCCCN(C)C)C2=O [Example 23, 5-{[3-(dimethylamino)propyl]amino}-2-methyl-1,3-benzothiazole-4,7-dione]
24 | ≥ 5.00 | CCCCCC(CC)NC1=CC(=O)c2sc(C)nc2C1=O (stereo not drawn) [Example 6, 5-[(1-ethylhexyl)amino]-2-methyl-1,3-benzothiazole-4,7-dione]
25 | ≥ 5.00 | Cc1nc2c(s1)C(=O)C=C(NCCCN(C)C(=O)OC(C)(C)C)C2=O [Example 30, tert-butyl methyl{3-[(2-methyl-4,7-dioxo-4,7-dihydro-1,3-benzothiazol-5-yl)amino]propyl}carbamate]
26 | ≥ 5.00 | Cc1nc2c(s1)C(=O)C=C(NCCCCCCN(C)C)C2=O [Example 3, 5-{[6-(dimethylamino)hexyl]amino}-2-methyl-1,3-benzothiazole-4,7-dione]
27 | ≥ 5.00 | CNCCCNC1=CC(=O)c2sc(C)nc2C1=O [Example 32, 2-methyl-5-{[3-(methylamino)propyl]amino}-1,3-benzothiazole-4,7-dione hydrochloride]
28 | ≥ 5.00 | Cc1nc2c(s1)C(=O)C=C(NCC(C)(C)CN(C)C)C2=O [Example 4, 5-{[3-(dimethylamino)-2,2-dimethylpropyl]amino}-2-methyl-1,3-benzothiazole-4,7-dione]
29 | ≥ 5.00 | Cc1nc2c(s1)C(=O)C=C(NCCCN1CCCCC1C)C2=O (stereo not drawn) [Example 25, 2-methyl-5-{[3-(2-methylpiperidin-1-yl)propyl]amino)-1,3-benzothiazole-4,7-dione]
30 | ≥ 5.00 | Cc1nc2c(s1)C(=O)C=C(NCCCNC(=O)OC(C)(C)C)C2=O [Example 31, tert-butyl 3-[(2-methyl-4,7-dioxo-4,7-dihydro-1,3-benzothiazol-5-yl)amino]propylcarbamate]
